Source: the NIST ThermoML archive (doi:10.1016/j.jct.2015.08.014)
± gives the expanded uncertainty stated by the source.

What was measured:
[1] = 101.33 kPa, Liquid; for viscosity: Capillary tube (Ostwald / Ubbelohde) method; for mass density: Vibrating tube method
[2] = xn = mol fraction of the nth substance listed; conditions: 100 kPa, Liquid, x2 = 0; for viscosity: Capillary tube (Ostwald / Ubbelohde) method; for mass density: Vibrating tube method

O=C1CCCO1 [γ-butyrolactone]
[1]
Conditions | mass density [kg/m3] | viscosity [mPa·s]
273.15 K | 1149.15 ± 9.2 | 2.69 ± 0.06
278.15 K | 1144.23 ± 9.2 | 2.43 ± 0.05
283.15 K | 1139.31 ± 9.1 | 2.21 ± 0.05
288.15 K | 1134.4 ± 9.1 | 2.02 ± 0.04
293.15 K | 1129.49 ± 9 | 1.86 ± 0.04
298.15 K | 1124.59 ± 9 | 1.71 ± 0.04
303.15 K | 1119.68 ± 9 | 1.58 ± 0.03
308.15 K | 1114.78 ± 8.9 | 1.47 ± 0.03
313.15 K | 1109.87 ± 8.9 | 1.37 ± 0.03
318.15 K | 1104.96 ± 8.8 | 1.28 ± 0.03
323.15 K | 1100.05 ± 8.8 | 1.2 ± 0.03
328.15 K | 1095.14 ± 8.8 | –
333.15 K | 1090.22 ± 8.7 | –

O=C1CCCO1 [γ-butyrolactone] + CCCC[N+]1(C)CCCC1.N#CN=C=[N-]
[2]
Conditions | mass density [kg/m3] | viscosity [mPa·s]
273.15 K | 1149.15 ± 9.2 | 2.69 ± 0.06
283.15 K | 1139.31 ± 9.1 | 2.21 ± 0.05
293.15 K | 1129.49 ± 9 | 1.86 ± 0.04
298.15 K | 1124.59 ± 9 | 1.71 ± 0.04
303.15 K | 1119.68 ± 9 | 1.58 ± 0.03
313.15 K | 1109.87 ± 8.9 | 1.37 ± 0.03
323.15 K | 1100.05 ± 8.8 | 1.2 ± 0.03
